Source: article PMC12133982, “Predominant T-cell epitopes of SARS-CoV-2 restricted by multiple prevalent HLA-B and HLA-C allotypes in Northeast Asia” (Frontiers in Immunology, 2025)
Several values for one entry are separate records, joined by “and”; a condition that tells them apart may be missing. Equal entries are not always repeated. Peptide text beside a SMILES is read from it.

Tests used:
HLA-B5801 = HLA-B5801 (Homo sapiens, UniProt P01889, A329T/C349S/D201E/D98Y/E176V/E187L/E204Q/E69T/G107R/I218V/I90N/K202T/L105A/L119I/N104I/N87E/Q89R/Q94S/R106L/R155S/R180L/R86G/S101N/S121R/S35A/S48A/T118I/V127L/V306I/V36M/Y140S/Y91M); experiment: Competitive peptide binding assay, CIR-B5801; conditions: HMy2.CIR-B5801 cells, reference Cy5-[…], class from inhibition at 5 and 15 μM, flow cytometry MFI; read-out: Binding affinity with HLA-B5801
Method: (§1) Then, competitive peptide binding assays were performed.

HLA-B1502 = HLA-B1502 (Homo sapiens, UniProt P01889, A329T/A93T/A95T/C349S/D201E/D98Y/E187L/E204Q/E69M/E70A/H137Y/K202T/L119I/Q94N/R155S/R180L/S121R/S35A/S48A/T118I/V306I/V36M/Y140S/Y91S); experiment: Competitive peptide binding assay, CIR-B1502; conditions: HMy2.CIR-B1502 cells, reference Cy5-[…], class from inhibition at 5 and 15 μM, flow cytometry MFI; read-out: Binding affinity with HLA-B1502
Method: as §1

HLA-B1501 = HLA-B1501 (Homo sapiens, UniProt P01889, A329T/A93T/A95T/C349S/D201E/D98Y/E187L/E204Q/E69M/E70A/K202T/N87E/Q94N/R155S/R180W/S121R/S35A/S48A/V306I/V36M/Y140S/Y91S); experiment: Competitive peptide binding assay, CIR-B1501; conditions: HMy2.CIR-B1501 cells, reference Cy5-[…], class from inhibition at 5 and 15 μM, flow cytometry MFI; read-out: Binding affinity with HLA-B1501
Method: as §1

HLA-B1301 = HLA-B1301 (Homo sapiens, UniProt P01889, A65T/A93T/A95T/D138N/D201E/D98Y/E176V/E204Q/E69M/E70A/G107R/K202T/L105A/L119I/N104T/N87E/Q94N/R106L/R155S/R169L/R180L/S101N/S121R/S35A/S48T/T118I/V127L/V36M/Y140L/Y91S); experiment: Competitive peptide binding assay, CIR-B1301; conditions: HMy2.CIR-B1301 cells, reference Cy5-[…], class from inhibition at 5 and 15 μM, flow cytometry MFI; read-out: Binding affinity with HLA-B1301
Method: as §1

HLA-B0702 = molecular target: T1, HLA-B0702 (Homo sapiens, UniProt P01889); experiment: Competitive peptide binding assay, CIR-B0702; conditions: HMy2.CIR-B0702 cells, reference Cy5-[…], class from inhibition at 5 and 15 μM, flow cytometry MFI
T1 construct: expressed in transfected cells; host or cells: HMy2.CIR
Method: as §1

HLA-B4601 = HLA-B4601 (Homo sapiens, UniProt P01889, A329T/A93R/C349S/D201E/E100V/E187L/E204Q/E69M/E70A/I90K/K202T/N87E/R155S/R180W/S121R/S35A/S48A/V306I/V36M/Y140S); experiment: Competitive peptide binding assay, CIR-B4601; conditions: for IC50: HMy2.CIR-B4601 cells, reference Cy5-[…], class from inhibition at 5 and 15 μM, flow cytometry MFI, read-out: Binding affinity with HLA-B4601
Method: as §1

HLA-B4001 = HLA-B4001 (Homo sapiens, UniProt P01889, A65T/A93T/A95T/D138N/D98Y/E176V/E69K/N87E/Q56L/Q94N/R180L/S121R/S35A/S48T/T167S/V36M/W171L/Y33H/Y91S); experiment: Competitive peptide binding assay, CIR-B4001; conditions: HMy2.CIR-B4001 cells, reference Cy5-[…], class from inhibition at 5 and 15 μM, flow cytometry MFI; read-out: Binding affinity with HLA-B4001
Method: as §1

HLA-B3501 = HLA-B3501 (Homo sapiens, UniProt P01889, A329T/A93T/A95T/C349S/D201E/D98Y/E176V/E187L/E204Q/E69T/I218V/K202T/L119I/Q94N/R155S/R180L/S121R/S35A/S48A/T118I/V127L/V306I/V36M/Y140S/Y91F); experiment: Competitive peptide binding assay, CIR-B3501; conditions: HMy2.CIR-B3501 cells, reference Cy5-[…], class from inhibition at 5 and 15 μM, flow cytometry MFI; read-out: Binding affinity with HLA-B3501
Method: as §1

HLA-B1302 = HLA-B1302 (Homo sapiens, UniProt P01889, A65T/A93T/A95T/D138N/D201E/D98Y/E176V/E204Q/E69M/E70A/G107R/K202T/L105A/L119W/N104T/N87E/Q94N/R106L/R155S/R169L/R180L/S101N/S121T/S35A/S48T/V127L/V36M/Y140L/Y91S); experiment: Competitive peptide binding assay, CIR-B1302; conditions: HMy2.CIR-B1302 cells, reference Cy5-MMWYWGPSL, class from inhibition at 5 and 15 μM, flow cytometry MFI; read-out: Binding affinity with HLA-B1302
Method: as §1

HLA-B4403 = HLA-B4403 (Homo sapiens, UniProt P01889, A223V/A65T/A93T/A95T/D201E/D98Y/E176V/E187L/E204Q/E69K/G107R/H137Y/K202T/L105A/L119I/N104T/N87E/Q56L/Q94N/R106L/R155S/R180L/S101N/S121R/S35A/S48T/T118I/V36M/W191S/Y140D/Y91S); experiment: Competitive peptide binding assay, CIR-B4403; conditions: HMy2.CIR-B4403 cells, reference Cy5-CYMEAVAL, class from inhibition at 5 and 15 μM, flow cytometry MFI; read-out: Binding affinity with HLA-B4403
Method: as §1

Row | Compound | IC50 (HLA-B5801) [µM] | IC50 (HLA-B1502) [µM] | IC50 (HLA-B1501) [µM] | IC50 (HLA-B1301) [µM] | IC50 (HLA-B0702) [µM] | IC50 (HLA-B4601) [µM] | IC50 (HLA-B4001) [µM] | IC50 (HLA-B3501) [µM] | IC50 (HLA-B1302) | IC50 (HLA-B4403) [µM] | inhibition at 5 µM (HLA-B4601; read-out: Inhibition % of Cy5-reference peptide binding, CIR-B4601, 5μM peptide) [%] | inhibition at 15 µM (HLA-B4601; read-out: Inhibition % of Cy5-reference peptide binding, CIR-B4601, 15μM peptide) [%]
1 | CC[C@H](C)[C@H](NC(=O)[C@@H](NC(=O)[C@H](CC(C)C)NC(=O)[C@H](CCC(=O)O)NC(=O)[C@H](CO)NC(=O)[C@H](CCC(=O)O)NC(=O)[C@@H](N)CC(C)C)C(C)C)C(=O)NCC(=O)N[C@@H](C)C(=O)N[C@H](C(=O)O)C(C)C [Epitope Y211] (H-LESELVIGAV-OH; N-terminus and C-terminus assumed) | > 15 | > 15 | 5 to 15 | > 15 | > 15 | > 15 | 5 to 15 | > 15 | > 15 µM |  |  | 
2 | CSCC[C@H](NC(=O)[C@H](CO)NC(=O)[C@H](CCC(N)=O)NC(=O)[C@H](CCC(N)=O)NC(=O)[C@H](CC(C)C)NC(=O)[C@H](CCC(N)=O)NC(=O)[C@H](CCCCN)NC(=O)[C@H](CO)NC(=O)[C@@H](N)Cc1ccccc1)C(=O)O [Epitope Y135] (H-FSKQLQQSM-OH; N-terminus and C-terminus assumed) | 5 to 15 |  | < 5 | > 15 | 5 to 15 | < 5 |  | > 15 |  |  |  | 
3 | CC[C@H](C)[C@H](NC(=O)[C@H](CCCNC(=N)N)NC(=O)[C@H](CC(C)C)NC(=O)[C@H](CCSC)NC(=O)[C@H](CC(N)=O)NC(=O)[C@@H]1CCCN1C(=O)[C@H](CCSC)NC(=O)[C@H](C)NC(=O)[C@@H](N)CCCNC(=N)N)C(=O)O [Epitope Y77] (H-RAMPNMLRI-OH; N-terminus and C-terminus assumed) | 5 to 15 |  |  | > 15 |  | 5 to 15 |  | > 15 | < 5 µM | > 15 |  | 
4 | CC(C)C[C@H](NC(=O)[C@H](CC(C)C)NC(=O)[C@H](C)NC(=O)[C@H](CCC(N)=O)NC(=O)[C@H](CCCNC(=N)N)NC(=O)[C@@H](NC(=O)[C@H](CCCNC(=N)N)NC(=O)[C@H](CCC(=O)O)NC(=O)CN)C(C)C)C(=O)O [Epitope Y202] (H-GERVRQALL-OH; N-terminus and C-terminus assumed) | > 15 | > 15 | > 15 | > 15 | > 15 | 5 to 15 |  | > 15 | > 15 µM |  |  | 
5 | CSCC[C@H](NC(=O)[C@H](C)NC(=O)[C@@H](N)Cc1ccccc1)C(=O)N[C@@H](CCC(N)=O)C(=O)N[C@@H](CCSC)C(=O)N[C@@H](C)C(=O)N[C@@H](Cc1ccc(O)cc1)C(=O)N[C@@H](CCCNC(=N)N)C(=O)N[C@@H](Cc1ccccc1)C(=O)O [Epitope Y189] | > 15 | > 15 | > 15 | 5 to 15 | < 5 | < 5 |  | 5 to 15 |  |  | 74.8 | 92.9
6 | CC(C)C[C@H](NC(=O)[C@H](CC(N)=O)NC(=O)[C@H](CCCCN)NC(=O)[C@@H](NC(=O)[C@H](CCCNC(=N)N)NC(=O)[C@H](CO)NC(=O)[C@H](Cc1ccc(O)cc1)NC(=O)[C@@H](NC(=O)[C@@H](N)Cc1ccc(O)cc1)C(C)C)C(C)C)C(=O)O [Epitope Y3] (H-YVYSRVKNL-OH; N-terminus and C-terminus assumed) |  |  | 5 to 15 | > 15 |  | > 15 |  | > 15 | > 15 µM | < 5 |  | 
7 | CC(C)C[C@H](NC(=O)[C@H](CC(C)C)NC(=O)[C@@H](NC(=O)[C@@H](NC(=O)[C@@H](NC(=O)[C@H](CCC(N)=O)NC(=O)[C@H](CCC(N)=O)NC(=O)[C@H](CCCCN)NC(=O)[C@@H](N)CCCCN)[C@@H](C)O)C(C)C)[C@@H](C)O)C(=O)O [Epitope Y196] (H-KKQQTVTLL-OH; N-terminus and C-terminus assumed) | > 15 |  | > 15 | > 15 | > 15 | < 5 |  | > 15 | 5 to 15 µM |  |  | 
8 | CC[C@H](C)[C@H](N)C(=O)N[C@@H](C)C(=O)N[C@@H](CCSC)C(=O)N[C@@H](C)C(=O)N[C@@H](CS)C(=O)N[C@@H](CC(C)C)C(=O)N[C@H](C(=O)NCC(=O)N[C@@H](CC(C)C)C(=O)O)C(C)C [Epitope Y253] (H-IAMACLVGL-OH; N-terminus and C-terminus assumed) | > 15 | > 15 | > 15 | 5 to 15 |  | < 5 |  | > 15 | 5 to 15 µM | 5 to 15 |  | 
9 | CSCC[C@H](NC(=O)[C@H](C)NC(=O)[C@@H]1CCCN1C(=O)[C@H](CC(=O)O)NC(=O)[C@H](C)NC(=O)[C@H](C)NC(=O)[C@H](Cc1ccc(O)cc1)NC(=O)[C@@H](NC(=O)[C@@H](N)CC(C)C)C(C)C)C(=O)O [Epitope Y165] (H-LVYAADPAM-OH; N-terminus and C-terminus assumed) | > 15 | 5 to 15 | > 15 | 5 to 15 | 5 to 15 | 5 to 15 | > 15 | < 5 |  |  |  | 
10 | CC[C@H](C)[C@H](NC(=O)[C@H](CC(C)C)NC(=O)[C@H](CCC(N)=O)NC(=O)[C@H](CCC(N)=O)NC(=O)[C@@H](NC(=O)[C@@H](NC(=O)[C@H](Cc1ccc(O)cc1)NC(=O)[C@@H](NC(=O)[C@H](CCC(N)=O)NC(=O)[C@@H](N)CC(C)C)[C@@H](C)O)C(C)C)[C@@H](C)O)C(=O)O [Epitope Y118] (H-LQTYVTQQLI-OH; N-terminus and C-terminus assumed) | > 15 | > 15 |  |  |  | > 15 |  | > 15 | < 5 µM and 5 to 15 µM | 5 to 15 |  | 
11 | CC(C)C[C@H](NC(=O)[C@H](CC(=O)O)NC(=O)[C@H](C)NC(=O)[C@H](C)NC(=O)[C@@H]1CCCN1C(=O)[C@@H](N)CC(C)C)C(=O)N[C@@H](CC(=O)O)C(=O)N[C@@H](CC(=O)O)C(=O)N[C@@H](Cc1ccccc1)C(=O)O [Epitope Y180] (H-LPAADLDDF-OH; N-terminus and C-terminus assumed) | > 15 | > 15 | 5 to 15 | > 15 | > 15 | > 15 |  |  |  |  |  | 
